Experiments:
Assay in all cases: relative viability (nuclei count vs DMSO), 5 days (fraction); higher = more cells survive
Ibrutinib + Lapatinib = compound: C=CC(=O)N1CCC[C@@H](n2nc(-c3ccc(Oc4ccccc4)cc3)c3c(N)ncnc32)C1 [Ibrutinib] + CS(=O)(=O)CCNCc1ccc(-c2ccc3ncnc(Nc4ccc(OCc5cccc(F)c5)c(Cl)c4)c3c2)o1 [Lapatinib] (partner 2 µM)
How it was run: (§1)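 Nuclei were stained with Hoechst during a one-step fixation (final 0.05% Triton X-100, 1% formaldehyde, 1 ug/ml Hoechst) carried out 5 days after dosing, then counted on 4× images. The cells, lung cancer lines in 1536-well plates, had been dosed by pin tool the day after seeding with one drug alone or a fixed anchor-drug dose plus five library-drug doses (not always all listed) in √10 steps. Relative viability is the nuclei count in treated wells divided by that in vehicle wells, and each value is the median of duplicate plates.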

BMX-IN-1 + Linsitinib = compound: C=CC(=O)Nc1cc(-n2c(=O)ccc3cnc4ccc(-c5ccc(NS(C)(=O)=O)cc5)cc4c32)ccc1C [BMX-IN-1] + C[C@]1(O)C[C@@H](c2nc(-c3ccc4ccc(-c5ccccc5)nc4c3)c3c(N)nccn32)C1 [Linsitinib] (partner 1 µM)
How it was run: as §1

PAC-1 + Palbociclib = compound: C=CCc1cccc(/C=N/NC(=O)CN2CCN(Cc3ccccc3)CC2)c1O [PAC-1] + CC(=O)c1c(C)c2cnc(Nc3ccc(N4CCNCC4)cn3)nc2n(C2CCCC2)c1=O [Palbociclib] (partner 0.5 µM)
How it was run: as §1

PAC-1 + Decitabine = compound: C=CCc1cccc(/C=N/NC(=O)CN2CCN(Cc3ccccc3)CC2)c1O [PAC-1] + Nc1ncn([C@H]2C[C@H](O)[C@@H](CO)O2)c(=O)n1 [Decitabine] (partner 2 µM)
How it was run: as §1

| Cell Line | relative viability (Ibrutinib + Lapatinib; first compound 0.005 µM) | relative viability (Ibrutinib + Lapatinib; first compound 0.01581 µM) | relative viability (Ibrutinib + Lapatinib; first compound 0.05 µM) | relative viability (Ibrutinib + Lapatinib; first compound 0.1581 µM) | relative viability (BMX-IN-1 + Linsitinib; first compound 0.02 µM) | relative viability (BMX-IN-1 + Linsitinib; first compound 0.2 µM) | relative viability (BMX-IN-1 + Linsitinib; first compound 0.6325 µM) | relative viability (BMX-IN-1 + Linsitinib; first compound 2 µM) | relative viability (PAC-1 + Palbociclib; first compound 0.02 µM) | relative viability (PAC-1 + Palbociclib; first compound 0.06325 µM) | relative viability (PAC-1 + Palbociclib; first compound 0.2 µM) | relative viability (PAC-1 + Palbociclib; first compound 2 µM) | relative viability (PAC-1 + Decitabine; first compound 0.02 µM) | relative viability (PAC-1 + Decitabine; first compound 0.06325 µM) | relative viability (PAC-1 + Decitabine; first compound 0.2 µM) | relative viability (PAC-1 + Decitabine; first compound 2 µM) | relative viability (Ibrutinib + Lapatinib; first compound 0.5 µM) |
| --- | --- | --- | --- | --- | --- | --- | --- | --- | --- | --- | --- | --- | --- | --- | --- | --- | --- |
| NCI-H23 | 0.943 | 1.19 | 1.18 | 1.15 | 0.614 | 0.606 | 0.471 | 0.548 | 0.629 | 0.521 | 0.524 | 0.533 | 0.322 | 0.303 | 0.294 | 0.284 |  |
| LCLC-97TM1 | 0.69 | 0.913 | 1.41 |  | 0.202 | 0.166 | 0.162 | 0.162 | 0.211 | 0.274 |  | 0.225 | 0.229 | 0.215 |  | 0.261 | 0.931 |
| NCI-H661 | 0.414 | 0.504 | 0.489 | 0.571 | 0.677 | 0.54 | 0.5 | 0.685 | 0.439 | 0.445 | 0.399 | 0.392 | 0.526 | 0.53 | 0.439 | 0.506 | 0.426 |
| NCI-H1944 | 0.818 | 0.818 | 0.771 | 0.7 | 1.34 | 1.22 | 1.33 | 1.2 | 0.272 | 0.347 | 0.374 | 0.371 | 0.435 | 0.459 | 0.466 | 0.456 | 0.844 |
| NCI-H1915 |  | 0.987 | 1.01 | 1.06 | 1.14 | 1.1 | 1.14 | 1.1 | 0.502 | 0.535 | 0.49 | 0.518 | 0.266 | 0.253 | 0.245 | 0.27 | 1.06 |
| BEN |  | 0.791 | 0.519 | 0.526 | 1.08 | 1.13 | 0.995 | 0.942 | 0.443 | 0.489 | 0.47 | 0.459 | 0.644 | 0.72 | 0.613 | 0.642 | 0.551 |
| H3255 | 0.26 | 0.28 | 0.248 | 0.182 | 1.07 | 1.01 | 0.965 | 0.912 | 0.359 | 0.298 | 0.299 | 0.291 | 0.593 | 0.849 | 0.534 | 0.63 | 0.218 |
| NCI-H1395 | 1.1 | 1.04 | 1.04 | 0.869 | 0.975 | 1 | 1.11 | 1.08 | 0.624 | 0.648 | 0.593 | 0.572 | 0.741 | 0.685 | 0.632 | 0.712 | 1.05 |
| NCI-H1437 | 0.799 | 0.677 | 0.775 | 0.604 | 1.35 | 1.21 | 1.14 | 1.03 | 0.298 | 0.35 | 0.355 | 0.307 | 0.568 | 0.587 | 0.583 | 0.537 | 0.893 |
| NCI-H1755 |  | 0.991 | 1.08 | 0.981 | 1.04 | 1.09 | 1.1 | 1 | 0.473 | 0.444 | 0.453 | 0.468 | 0.764 | 0.712 | 0.675 | 0.732 | 1.05 |
| SK-LU-1 | 0.88 | 0.76 | 0.838 | 0.937 | 1.3 | 1.15 | 1.21 | 1.09 | 0.391 | 0.41 | 0.394 | 0.369 | 0.651 | 0.627 | 0.293 | 0.654 | 0.905 |
| HOP-62 | 1.04 | 0.922 | 1.08 | 1.13 | 0.959 | 1 | 1.02 | 0.947 | 0.463 | 0.437 | 0.51 | 0.46 | 0.255 | 0.213 | 0.177 | 0.236 | 1.12 |
| SW 1573 | 1.01 | 1.22 | 1.3 | 1 | 0.709 | 0.864 | 0.825 | 0.771 | 0.381 | 0.292 | 0.455 | 0.474 | 0.532 | 0.551 | 0.432 | 0.564 | 1.22 |
| PC-14 | 0.308 | 0.302 | 0.285 | 0.322 | 1.04 | 1.05 | 1.01 | 0.973 | 0.586 | 0.504 | 0.487 | 0.606 | 0.214 | 0.235 | 0.172 | 0.221 | 0.327 |
| EMC-BAC-2 | 0.827 | 0.864 | 0.858 | 0.909 | 0.916 | 0.782 | 0.84 | 0.802 | 0.55 | 0.524 | 0.519 | 0.519 | 0.924 | 0.989 | 0.895 | 1.01 | 0.899 |
| NCI-H520 | 0.788 | 0.789 | 0.934 | 0.907 | 1.09 | 1.2 | 1.36 | 1.02 | 0.21 | 0.256 | 0.179 | 0.268 | 0.465 | 0.513 | 0.328 | 0.548 | 0.78 |
| A-427 | 1.01 | 1.01 | 1.06 | 0.982 | 1.19 | 1.09 | 1.14 | 1.12 | 0.574 | 0.548 | 0.549 | 0.507 | 0.602 | 0.56 | 0.532 | 0.542 | 1.01 |
